Experimental findings from patent EP3650451A1, “COMPOUNDS AND THEIR USES AS FLUORESCENT PROBES” (Consejo Superior de Investigaciones Cientificas, priority 2017, dated 2019) are described below.

This test relates to SCC38 cells. The experiment in a line: Labeling in the presence of FCCP (depolarized mitochondrial membrane), flow cytometry. Type of test: cell-based, human. As to the method:
• Fig. 1. In vivo labeling of SCC38 cells with compound 4 at different concentrations (50, 100 and 500 nM). Scale bar: 10 µm • Fig. 2. Flow cytometry studies in SCC38 and HeLa cell lines labeled with compound 4 and Mito Tracker® Red. Histograms wherein fluorescence intensity vs number of events is represented for each of the staining times (5, 15 and 30 min) and control (Ctrl), for the SCC38 and HeLa cells and for each of the two markers. • Fig. 3. Absorption (A) and fluorescence (B) spectra, normalized to molar absorption and fluorescence quantum yield of probe 4 in different solvents; chloroform (green), acetone (black), acetonitrile (red), ethanol (blue) and water (gray). • Fig. 4. […] (A) Flow cytometry analysis of SCC38 cells incubated in the presence (+FCCP) or absence (-FCCP) of FCCP 60 µM for 3 h before staining with 20 nM of 4 or 0.5 nm of MitoTracker. The data represent the mean fluorescence intensity (MFI) of the stained cells. (B) Microscopy analysis of SCC38 cells pretreated or not with FCCP before co-staining with 20 nM of 4 and 0.5 nm of MitoTracker. The graphs show the fluorescence profiles of the regions of interest indicated with white lines in the right-hand panels. Scale bars: 10 µm). • Fig. 5. […] The data represent the mean fluorescence intensity (MFI) of the stained cells (upper panels) and representative images of the cytometry profiles (lower panels). • Fig. 7. […] (B) The data represent the mean fluorescence intensity (MFI) of the labeled cells.
The labeling was analyzed by flow cytometry in the presence of carbonyl cyanide-p-(trifluoromethoxy)phenylhydrazone (FCCP), a protonophore used to reduce the mitochondrial membrane potential (ΔΨm) through depolarization of the mitochondrial membrane. […] Indeed, the suppression of dye-mitochondria electrostatic attraction as a passive labeling mechanism reduces the concentration of the dye in the cell organelle and, thus, the probability and extent of the fluorescence deactivation processes, with the ensuing increase in their efficiency. […]

Turning to `CC1=CC(C)=[N+]2C1=C(c1c(C)cc(C)cc1C)c1c(C)cc(C)n1[B-]21OC(=O)C[C@H](C[N+](C)(C)C)O1` (some centres unmarked) [Compound 4], the “labeling of depolarized mitochondria” value (60 µM FCCP for 3 h at 37 °C) is “capable of labeling depolarized mitochondria”. Further, under “60 µM FCCP for 3 h at 37 °C before staining, 20 nM of 4 or 0.5 nM of MitoTracker”, the “mitochondrial fluorescence of cells treated with FCCP” value is listed as “increase in fluorescence”.
